One experiment has as its target HPK1 (Homo sapiens, UniProt Q92918). The experiment can be described thus: HPK1 Biochemical Assay (ADP-Glo luminescence; low ATP 10 μM or high ATP 200 μM). (In general: ADP-Glo turns the ADP formed in a reaction into a luminescent signal.)
Experiment [1] has as its system p-SLP-76 (Ser376) in Jurkat cells. In words: pSLP76 Cellular Assay (AlphaLISA SureFire Ultra p-SLP-76 (Ser376), anti-CD3 activated Jurkat cells). The class given is cell-based. The conditions noted are these: Homo sapiens; Jurkat cells, anti-CD3 stimulation, pSLP76; read-out: Cellular Potency. The essentials:
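Jurkat cells, serum-starved overnight in Opti-MEM then in HBSS, preincubated 1 h at 37 °C with 22-point 2-fold compound dilutions, then stimulated with anti-CD3 (0.025 mg/ml added solution) for 45 min. Lysate p-SLP-76 (Ser376) measured by AlphaLISA at 570 nm; IC50 from 4-parameter logistic fit.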
A general note: In Alpha technology, singlet oxygen from a donor bead excites a nearby acceptor bead.

Where [2] appears, read: 2 nM HPK1, 10 μM ATP, read-out: Biochemical Potency (low ATP).
Setting [3] is: 5 nM HPK1, 200 μM ATP, read-out: Biochemical Potency (high ATP).

The structures appear in SMILES notation. Where two headings read alike, the source gives them in different places.

Chain of HPK1 (Q92918 whole entry, species assumed): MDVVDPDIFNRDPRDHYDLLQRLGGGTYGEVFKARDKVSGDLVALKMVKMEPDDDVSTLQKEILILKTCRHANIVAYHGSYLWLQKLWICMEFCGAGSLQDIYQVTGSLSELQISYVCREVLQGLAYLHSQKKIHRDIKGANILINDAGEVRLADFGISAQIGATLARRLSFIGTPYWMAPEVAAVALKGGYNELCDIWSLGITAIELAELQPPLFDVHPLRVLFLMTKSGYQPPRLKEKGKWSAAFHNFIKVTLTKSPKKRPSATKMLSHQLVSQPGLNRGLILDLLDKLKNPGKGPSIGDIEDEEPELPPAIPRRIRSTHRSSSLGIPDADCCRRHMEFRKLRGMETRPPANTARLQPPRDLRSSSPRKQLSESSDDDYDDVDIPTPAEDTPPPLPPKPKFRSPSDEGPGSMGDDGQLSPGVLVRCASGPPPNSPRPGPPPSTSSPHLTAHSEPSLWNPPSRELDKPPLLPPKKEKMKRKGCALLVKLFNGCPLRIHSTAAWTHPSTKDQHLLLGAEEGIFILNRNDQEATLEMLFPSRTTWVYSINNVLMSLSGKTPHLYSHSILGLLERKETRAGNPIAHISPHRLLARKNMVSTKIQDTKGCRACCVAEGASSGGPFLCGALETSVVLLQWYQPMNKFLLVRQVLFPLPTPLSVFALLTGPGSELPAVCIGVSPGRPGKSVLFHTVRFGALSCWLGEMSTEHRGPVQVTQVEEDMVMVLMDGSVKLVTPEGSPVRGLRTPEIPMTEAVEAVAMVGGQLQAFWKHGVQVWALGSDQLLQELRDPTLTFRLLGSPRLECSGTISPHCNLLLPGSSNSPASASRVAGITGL

For `CC(C)c1ccc(Nc2cc3nc(-c4cnn(C)c4)sc3cn2)nc1CN1CCCC1` [Example 227, N-[2-(1-Methyl-1H-pyrazol-4-yl)-[1,3]thiazolo[5,4-c]pyridin-6-yl]-5-(propan-2-yl)-6-[(pyrrolidin-1-yl)methyl]pyridin-2-amine], the results for the IC50 (on HPK1 (setting [2]); in experiment [1]) were below 100 nM and 100 to 1000 nM, respectively.

On to `C[C@H]1COCCN1c1nc2cc(Nc3ccc(C4CCOCC4)c(CN4CCCC4)n3)ncc2s1` [Example 235, N-{2-[(3S)-3-Methylmorpholin-4-yl]-[1,3]thiazolo[5,4-c]pyridin-6-yl}-5-(oxan-4-yl)-6-[(pyrrolidin-1-yl)methyl]pyridin-2-amine], for which the results for the IC50 (at HPK1 (setting [2]); in experiment [1]) were below 100 nM and 1000 to 5000 nM, respectively.

Consider `Cc1cc(-c2nc3cc(Nc4ccc(C5CCOCC5)c(N5C[C@@H]6CCN(C)[C@@H]6C5)n4)ncc3s2)ccn1` [Example 248, 6-[(3aS,6aS)-1-Methyl-octahydropyrrolo[3,4-b]pyrrol-5-yl]-N-[2-(2-methylpyridin-4-yl)-[1,3]thiazolo[5,4-c]pyridin-6-yl]-5-(oxan-4-yl)pyridin-2-amine], for which the IC50 (at HPK1 (setting [2]); on HPK1 (setting [3]); in experiment [1]) was below 100 nM throughout.

As for `Cc1cccnc1-c1nc2cc(Nc3cc(C4CCOCC4)nc(N4C[C@@H]5C[C@H]4CN5C)n3)ncc2s1` [Example 249, 2-[(1S,4S)-5-Methyl-2,5-diazabicyclo[2.2.1]heptan-2-yl]-N-[2-(3-methylpyridin-2-yl)-[1,3]thiazolo[5,4-c]pyridin-6-yl]-6-(oxan-4-yl)pyrimidin-4-amine], the values for the IC50 (at HPK1 (setting [2]); at HPK1 (setting [3]); in experiment [1]) were below 100 nM, below 100 nM and 100 to 1000 nM, respectively.

Consider `Cc1cc(-c2nc3cc(Nc4ccc(C5CCOC5)c(CN5CCCC5)n4)ncc3s2)ccn1` (stereo not shown) [Example 253, N-[2-(2-Methylpyridin-4-yl)-[1,3]thiazolo[5,4-c]pyridin-6-yl]-5-(oxolan-3-yl)-6-[(pyrrolidin-1-yl)methyl]pyridin-2-amine], for which the IC50 on HPK1 (setting [2]) was below 100 nM; in experiment [1], 100 to 1000 nM.

Turning to `c1cncc(-c2nc3cc(Nc4ccc(C5CCOC5)c(CN5CCCC5)n4)ncc3s2)c1` (stereo not shown) [Example 254, 5-(Oxolan-3-yl)-N-[2-(pyridin-3-yl)-[1,3]thiazolo[5,4-c]pyridin-6-yl]-6-[(pyrrolidin-1-yl)methyl]pyridin-2-amine], the IC50 on HPK1 (setting [2]) was below 100 nM; in experiment [1], 100 to 1000 nM.

Consider `Cc1cccc(F)c1-c1nc2cc(Nc3ccc(C4CCOC4)c(CN(C)C)n3)ncc2s1` (stereo not shown) [Example 255, 6-[(Dimethylamino)methyl]-N-[2-(2-fluoro-6-methylphenyl)-[1,3]thiazolo[5,4-c]pyridin-6-yl]-5-(oxolan-3-yl)pyridin-2-amine], for which the IC50 at HPK1 (setting [2]) is below 100 nM; in experiment [1], 100 to 1000 nM.

For the molecule `Cc1ccnn1-c1nc2cc(Nc3ccc(C4CCOC4)c(CN4CCCC4)n3)ncc2s1` (stereo not shown) [Example 256, N-[2-(5-Methyl-1H-pyrazol-1-yl)-[1,3]thiazolo[5,4-c]pyridin-6-yl]-5-(oxolan-3-yl)-6-[(pyrrolidin-1-yl)methyl]pyridin-2-amine], the IC50 (at HPK1 (setting [2]); in experiment [1]) was below 100 nM in each case.

For `CN(C)Cc1nc(Nc2cc3nc(-c4c(F)cccc4F)sc3cn2)ccc1C1CCOC1` (stereo not shown) [Example 257, N-[2-(2,6-Difluorophenyl)-[1,3]thiazolo[5,4-c]pyridin-6-yl]-6-[(dimethylamino)methyl]-5-(oxolan-3-yl)pyridin-2-amine], the IC50 at HPK1 (setting [2]) is below 100 nM; in experiment [1], 1000 to 5000 nM.

Consider `Cc1cccnc1-c1nc2cc(Nc3ccc(C4CC4)c(CN4CCCC4)n3)ncc2s1` [Example 262, 5-Cyclopropyl-N-[2-(3-methylpyridin-2-yl)-[1,3]thiazolo[5,4-c]pyridin-6-yl]-6-[(pyrrolidin-1-yl)methyl]pyridin-2-amine], for which the IC50 at HPK1 (setting [2]) is below 100 nM; in experiment [1] it was 1000 to 5000 nM.

Regarding `CN1C[C@@H]2C[C@H]1CN2c1nccc(Nc2cc3nc(-c4ccnc(N5CC[C@@H](O)C5)c4)sc3cn2)n1` [Example 264, (3R)-1-{4-[6-({2-[(1S,4S)-5-Methyl-2,5-diazabicyclo[2.2.1]heptan-2-yl]pyrimidin-4-yl}amino)-[1,3]thiazolo[5,4-c]pyridin-2-yl]pyridin-2-yl}pyrrolidin-3-ol], the IC50 on HPK1 (setting [2]) was below 100 nM; in experiment [1] it was 100 to 1000 nM.

As for `CN1C[C@@H]2C[C@H]1CN2c1nccc(Nc2cc3nc(-c4ccnc(N5CCOCC5)c4)sc3cn2)n1` [Example 268, 2-[(1S,4S)-5-Methyl-2,5-diazabicyclo[2.2.1]heptan-2-yl]-N-{2-[2-(morpholin-4-yl)pyridin-4-yl]-[1,3]thiazolo[5,4-c]pyridin-6-yl}pyrimidin-4-amine], the IC50 on HPK1 (setting [2]) was below 100 nM; in experiment [1], 100 to 1000 nM.

Turning to `CC(C)(N)c1nc(Nc2cc3nc(-c4c(F)cccc4F)sc3cn2)ccc1N1CCOCC1` [Example 269, 6-(2-Aminopropan-2-yl)-N-[2-(2,6-difluorophenyl)-[1,3]thiazolo[5,4-c]pyridin-6-yl]-5-(morpholin-4-yl)pyridin-2-amine], the IC50 was below 100 nM on HPK1 (setting [2]) and 1000 to 5000 nM in experiment [1].

In the case of `Cc1ccnn1-c1nc2cc(Nc3ccc(N4CCOCC4)c(C(C)(C)N)n3)ncc2s1` [Example 270, 6-(2-Aminopropan-2-yl)-N-[2-(5-methyl-1H-pyrazol-1-yl)-[1,3]thiazolo[5,4-c]pyridin-6-yl]-5-(morpholin-4-yl)pyridin-2-amine], the IC50 on HPK1 (setting [2]) is below 100 nM; in experiment [1] it was 100 to 1000 nM.

With `CC(C)(N)c1nc(Nc2cc3nc(-c4c(F)cccc4F)sc3cn2)ccc1N1CCC(F)(F)C1` [Example 271, 6-(2-Aminopropan-2-yl)-N-[2-(2,6-difluorophenyl)-[1,3]thiazolo[5,4-c]pyridin-6-yl]-5-(3,3-difluoropyrrolidin-1-yl)pyridin-2-amine], the IC50 at HPK1 (setting [2]) is below 100 nM; in experiment [1], 1000 to 5000 nM.

With `Cc1ccnn1-c1nc2cc(Nc3ccc(N4CCC(F)(F)C4)c(C(C)(C)N)n3)ncc2s1` [Example 273, 6-(2-Aminopropan-2-yl)-5-(3,3-difluoropyrrolidin-1-yl)-N-[2-(5-methyl-1H-pyrazol-1-yl)-[1,3]thiazolo[5,4-c]pyridin-6-yl]pyridin-2-amine], the IC50 is below 100 nM on HPK1 (setting [2]) and 100 to 1000 nM in experiment [1].

On to `NC1(c2nc(Nc3cc4nc(-c5c(F)cccc5F)sc4cn3)ccc2N2CCC(F)(F)C2)CC1` [Example 274, 6-(1-Aminocyclopropyl)-N-[2-(2,6-difluorophenyl)-[1,3]thiazolo[5,4-c]pyridin-6-yl]-5-(3,3-difluoropyrrolidin-1-yl)pyridin-2-amine], for which the IC50 at HPK1 (setting [2]) was below 100 nM; in experiment [1] it was above 5000 nM.

For the molecule `CN(C)Cc1cc(N2CCOCC2)cc(Nc2cc3nc(-c4c(F)cccc4F)sc3cn2)n1` [Example 275, N-[2-(2,6-Difluorophenyl)-[1,3]thiazolo[5,4-c]pyridin-6-yl]-6-[(dimethylamino)methyl]-4-(morpholin-4-yl)pyridin-2-amine], the IC50 at HPK1 (setting [2]) is below 100 nM; in experiment [1], above 5000 nM.

Consider `CN(C)Cc1ccc(N2CCOCC2)c(Nc2cc3nc(-c4c(F)cccc4F)sc3cn2)n1` [Example 276, N-[2-(2,6-Difluorophenyl)-[1,3]thiazolo[5,4-c]pyridin-6-yl]-6-[(dimethylamino)methyl]-3-(morpholin-4-yl)pyridin-2-amine], for which the IC50 (at HPK1 (setting [2]); in experiment [1]) was above 5000 nM throughout.

Consider `CC(c1nc(Nc2cc3nc(-c4c(F)cccc4F)sc3cn2)ccc1N1CCOCC1)N(C)C` (stereo not shown) [Example 277, N-[2-(2,6-Difluorophenyl)-[1,3]thiazolo[5,4-c]pyridin-6-yl]-6-[1-(dimethylamino)ethyl]-5-(morpholin-4-yl)pyridin-2-amine], for which the IC50 on HPK1 (setting [2]) was below 100 nM; in experiment [1], 1000 to 5000 nM.

As for `CCNC(C)c1nc(Nc2cc3nc(-c4c(F)cccc4F)sc3cn2)ccc1N1CCOCC1` (stereo not shown) [Example 278, N-[2-(2,6-Difluorophenyl)-[1,3]thiazolo[5,4-c]pyridin-6-yl]-6-[1-(ethylamino)ethyl]-5-(morpholin-4-yl)pyridin-2-amine], the IC50 is below 100 nM on HPK1 (setting [2]) and above 5000 nM in experiment [1].

For the molecule `CN1C[C@@H]2C[C@H]1CN2c1cncc(Nc2cc3nc(-c4cccc(NS(C)(=O)=O)c4)sc3cn2)n1` [Example 285, N-{3-[6-({6-[(1S,4S)-5-methyl-2,5-diazabicyclo[2.2.1]heptan-2-yl]pyrazin-2-yl}amino)-[1,3]thiazolo[5,4-c]pyridin-2-yl]phenyl}methanesulfonamide], the IC50 on HPK1 (setting [2]) is below 100 nM; on HPK1 (setting [3]) it was below 100 nM; in experiment [1], 100 to 1000 nM.

For the molecule `CN1C[C@@H]2C[C@H]1CN2c1nccc(Nc2cc3nc(-c4cccc(NS(C)(=O)=O)c4)sc3cn2)n1` [Example 286, N-{3-[6-({2-[(1S,4S)-5-methyl-2,5-diazabicyclo[2.2.1]heptan-2-yl]pyrimidin-4-yl}amino)-[1,3]thiazolo[5,4-c]pyridin-2-yl]phenyl}methanesulfonamide], the IC50 was below 100 nM on HPK1 (setting [2]), below 100 nM on HPK1 (setting [3]) and 1000 to 5000 nM in experiment [1].

Regarding `CN1C[C@@H]2C[C@H]1CN2c1cncc(Nc2cc3nc(-c4cccc(S(=O)(=O)N(C)C)c4)sc3cn2)n1` [Example 288, N,N-dimethyl-3-[6-({6-[(1S,4S)-5-methyl-2,5-diazabicyclo[2.2.1]heptan-2-yl]pyrazin-2-yl}amino)-[1,3]thiazolo[5,4-c]pyridin-2-yl]benzene-1-sulfonamide], the figures for the IC50 (on HPK1 (setting [2]); in experiment [1]) were 100 to 1000 nM and 1000 to 5000 nM, respectively.

Source of the values: patent US12649751B2 (Arcus Biosciences, Inc., priority 2022, dated 2026).
